A short description of this series: Human HepG2 cell viability assay in 384 well format. Format: toxicity, cell-based. Details: dose 125 nL, time 70.5 hour; cytotoxicity at 70.5 h: concentration not given beside the values. Conditions: HepG2 cells, read-out: Inhibition.

The text below walks through data of ChEMBL document CHEMBL3507680, “University of Dundee, Gates Library screen for HepG2 cell viability”.

Structures are written as SMILES.

Take `Cc1ccccc1C(=O)Nc1ccc([C@H]2OCC(=O)N(C)[C@@H]2CO)cc1`: the cytotoxicity at 70.5 h was -0.197%. As to `COc1ccccc1CN1C[C@@H](F)[C@@H](OCc2nc3ncccc3[nH]2)C1`, the cytotoxicity at 70.5 h was -0.841%. Then `Cc1cccc2c1nc1n2[C@@H](CNC(=O)NC(C)C)COC1`, with -0.416%; and `Fc1ccc2c(c1)nc1n2[C@@H](CNCc2nccs2)COC1`, with -7.36%; and `COc1ccc2nc(C[C@@H]3C[C@@H](C(C)C)[C@H](CN(C)C)C=C3C)[nH]c2n1`, with -3.85%. `CC(C)(C)C(=O)N1C[C@@H](F)[C@@H](OCc2nc3ncccc3[nH]2)C1`: the cytotoxicity at 70.5 h was -2.41%.

For `N#Cc1cccc(CN2C[C@@H](F)[C@@H](OCc3nc4cnccc4[nH]3)C2)c1`, the cytotoxicity at 70.5 h was 11.4%. With `COc1cccc(CN2C[C@@H](F)[C@@H](OCc3nc4cnccc4[nH]3)C2)c1`, the cytotoxicity at 70.5 h was 2.35%. `Fc1ccc2[nH]c(CO[C@H]3CN(CC4CC4)C[C@H]3F)nc2c1`: the cytotoxicity at 70.5 h came out at 1.66%.

For the molecule `O=C(NC[C@H]1OC[C@@H](NC2CCC(F)(F)CC2)[C@@H]1O)Nc1ccccc1`, the cytotoxicity at 70.5 h is 0.362%.

For the molecule `O=C(NC[C@H]1OC[C@@H](NC2CCOCC2)[C@@H]1O)C1CCCC1`, the cytotoxicity at 70.5 h was -6.06%.

As for `c1ccc(O[C@H]2COCCN(Cc3cccc4c3OCO4)C2)cc1`, the cytotoxicity at 70.5 h was -1.37%. As for `Cc1cc(C(=O)N2CCOC[C@H](Oc3cccnc3)C2)c(C(F)(F)F)o1`, the figure is 9.27%; as for `Cc1ccc(S(=O)(=O)NC[C@H]2OC[C@@H](NCc3cccs3)[C@@H]2O)cc1`, 7.42%; as for `O=C(NC1CCCC1)O[C@H]1COCCN(c2nc3ccccc3o2)C1`, -3.6%. As for `Cc1ccc(-c2cn3c(n2)CO[C@@H](CNCc2nccs2)C3)cc1`, the figure is -2.93%. As to `O=C(c1ccno1)N1CCOC[C@H](Oc2ccccc2)C1`, the cytotoxicity at 70.5 h is -3.41%. Take `O=S(=O)(Cc1ccccc1)NC[C@H]1Cn2ccnc2CO1`: the cytotoxicity at 70.5 h was determined as 10.3%. As for `CC(C)(C)CN[C@@H]1CO[C@H](CNC(=O)c2cccs2)[C@H]1O`, the figure is 4.02%; as for `O=C(NC[C@H]1OC[C@@H](NC2CCC2)[C@@H]1O)Nc1ccccc1`, 16.4%; as for `O=C1CCC2(CCCN(C(=O)Cc3ccccc3)C2)N1` (centres undefined), 5.57%.

`O=C1CCC2(CCCN(C(=O)Cc3ccccn3)C2)N1` (centres undefined): the cytotoxicity at 70.5 h worked out at 2.4%. Then `CC(=O)N1CCN(C(=O)Nc2ccccc2)CC2(CC(=O)N(C)C2)C1` (centres undefined), with 26.3%; and `Cc1ccc(C(=O)N2CCC3(CC2)CC(NC(=O)C(C)C)CO3)cc1` (centres undefined), with 5.27%.

On to `CC(C)NC(=O)N1CCOC2(CCCNC2)C1` (centres undefined), for which the cytotoxicity at 70.5 h is 4.28%. As for `CCCC(=O)N1CCC2(CC1)COC2`, the cytotoxicity at 70.5 h is -7.56%.

Take `O=S(=O)(c1ccccc1)N1C[C@@H]2CCN[C@@H]2C1`: the cytotoxicity at 70.5 h is -7.19%. With `O=C(N[C@]12CC1CN(C(=O)c1ccco1)C2)c1cccc(F)c1` (some centres undefined), the cytotoxicity at 70.5 h worked out at 13.8%. For the molecule `O=C1NCCC12CN(CC1CC1)CC21CCNCC1` (centres undefined), the cytotoxicity at 70.5 h was -6.52%.

With `O=C(N[C@]12CC1CN(C(=O)c1ccco1)C2)c1ccco1` (some centres undefined), the cytotoxicity at 70.5 h is -2.69%.

With `CN(Cc1ccco1)C1CCC12CCN(C(=O)c1ccncc1)CC2` (centres undefined), the cytotoxicity at 70.5 h is -5.53%. `Cc1ccc(S(=O)(=O)N2C[C@@H]3CCN[C@@H]3C2)cc1`: the cytotoxicity at 70.5 h is -4.81%. As to `O=C1CCC2(CCCN(C(=O)c3cccnc3)CC2)N1` (centres undefined), the cytotoxicity at 70.5 h is -3.4%.

Turning to `CN(C)C(=O)CN1CCC2(CC1)COC2`, the cytotoxicity at 70.5 h is -5.41%. As for `CN1CCC2(CCN(C(=O)c3ccccc3)CC2)C1`, the figure is 31.4%. As to `CC(C)C(=O)N1CCC2(CC1)[C@@H]1CN(C(=O)N(C)C)C[C@@H]1C(=O)N2C`, the cytotoxicity at 70.5 h is 28.3%. As for `CC(=O)N1CCOC2(CCCN(C(=O)CCN3CCCCC3)C2)C1` (centres undefined), the figure is -1.24%; as for `CCC(C)N1CCc2c(C(=O)N3CCOCC3)n[nH]c2C1` (centres undefined), -3.05%. In the case of `C[C@@H]1C[C@H]2CN(C(=O)C3=CCCC3)C[C@H]2O1`, the cytotoxicity at 70.5 h is -4.11%. With `CCN1C[C@@H]2CN(S(=O)(=O)c3cccs3)C[C@@H]2C1=O`, the cytotoxicity at 70.5 h was -8.27%.

As for `Cn1cc(CN2CCc3c(c(COCC#N)nn3C)C2)cn1`, the cytotoxicity at 70.5 h was -13.6%. Then `CCc1ccc(CN2CCC3(CC2)C(=O)N(C)CCN3CC)cc1`, with -10.4%; and `CCN1CC[C@@]2(C(=O)N(C)C)CCN(C(=O)NC(C)C)CC[C@@H]12`, with -4.36%; and `CN(C)CCN1CC[C@H]2[C@@H]1CCN2Cc1ccc2c(c1)OCO2`, with -4.2%. On to `O=C(C1CCCCC1)N1C[C@@H]2CCNC[C@@H]21`, for which the cytotoxicity at 70.5 h is -4.1%. Then `CN1CCCC2(C1)CN(C(=O)C1CCCCC1)CCO2` (centres undefined), with -4.05%; and `CCN1CCc2c(c(COC)nn2C)C1`, with -10.5%; and `CN(C)C(=O)N1Cc2ccccc2C2(CCN(C3CCOCC3)CC2)C1`, with -10.7%.

For the molecule `C[C@@H]1C[C@H]2CN(C(=O)C3=CCCCC3)C[C@H]2O1`, the cytotoxicity at 70.5 h is -10.1%. Consider `CC(C)CNC(=O)N1C[C@H]2CCN[C@H]2C1`, for which the cytotoxicity at 70.5 h was -8.65%. As for `O=C(c1ccc(F)c(F)c1)N1C[C@H]2CNC[C@H]2C1`, the figure is -11.5%; as for `Cc1ccc(CN2CCC3(CCN(S(=O)(=O)c4ccccc4)C3)C2)o1` (centres undefined), 27.1%; as for `O=C(C1CCC1)N1C[C@H]2CNC[C@H]2C1`, 13.3%. Take `O=C(c1ccoc1)N1CC[C@H]2[C@H]1CCN2CC1CC1`: the cytotoxicity at 70.5 h was -3.04%.

Take `c1cc(CN2CCC3(CC2)COC(COCC2CC2)C3)co1` (centres undefined): the cytotoxicity at 70.5 h was -20.3%. Regarding `CC(C)NC(=O)N1CCCC2(CCN(c3ccsc3)C2=O)C1` (centres undefined), the cytotoxicity at 70.5 h is -12.5%. For `O=C(c1ccoc1)N1CCOCC2(CCN(Cc3cccs3)C2)C1` (centres undefined), the cytotoxicity at 70.5 h was -12.4%.

On to `O=C(NCc1ccco1)[C@@H]1C[C@H]2OCC[C@H]2N(c2ncc(F)cn2)C1`, for which the cytotoxicity at 70.5 h was -14.6%. On to `O=C(c1ccco1)N1CCOCC2(C1)CN(c1ccccn1)C(=O)CO2` (centres undefined), for which the cytotoxicity at 70.5 h was -4.96%. As for `CCOCC1CN(C(=O)c2ccoc2C)Cc2cnn(C)c21` (centres undefined), the figure is 28.1%.

As for `CCOC(=O)CN1C[C@@H]2OCCN(c3ncc(F)cn3)[C@@H]2C1`, the cytotoxicity at 70.5 h was 21.2%. For the molecule `CN(C)Cc1cn2c(n1)CN(C1CCOC1)CC2` (centres undefined), the cytotoxicity at 70.5 h is -1.23%. For `COC(=O)NCC1CCC2(CCNCC2)O1` (centres undefined), the cytotoxicity at 70.5 h is 28.3%.

Turning to `CC(C)C(=O)N1C[C@H]2CCCN[C@H]2C1`, the cytotoxicity at 70.5 h is -5.18%. As for `CC(C)(C)CC(=O)N1C[C@@H]2C[C@H]1CN2`, the figure is -8.19%.

Take `O=C(C1CCCCC1)N1C[C@H]2CNC[C@H]2C1`: the cytotoxicity at 70.5 h is -11%. Then `O[C@@H]1C[C@@](CNCC2CCCC2)(COc2cccnc2)C[C@@H]1O`, with -6.04%; and `COCC(=O)N1CCC2(CCC2N(C)Cc2ccco2)CC1` (centres undefined), with 3.06%; and `COCc1nn(CC2CC2)c2c1CN(Cc1cncn1C)CC2`, with 2.02%. As for `Cc1ccc(CN2CCCC3(CCCC(=O)N3)C2)s1` (centres undefined), the figure is -8.14%; as for `Cn1nc(COCC2CC2)c2c1CCN(Cc1ccco1)C2`, -9.54%; as for `CN(C)C(=O)N1CCC2(CC1)CN(CC1CC1)CC21CCNC1=O` (centres undefined), 0.0936%. Turning to `O=C(C1CCCCC1)N1CCCC2(CCN(c3cnccn3)CC2)C1`, the cytotoxicity at 70.5 h stood at 23.6%.

Take `CCN1CCN(C)C(=O)C12CCN(Cc1cccc(C)c1)CC2`: the cytotoxicity at 70.5 h stood at 2.19%.

For the molecule `CCN1CC[C@@]2(C(=O)N3CCOCC3)CCN(C(=O)NC)CC[C@@H]12`, the cytotoxicity at 70.5 h is -10.8%. Regarding `CN(C)C(=O)N1CCc2onc(C(=O)Nc3cccnc3)c2C1`, the cytotoxicity at 70.5 h is -19.2%. As for `CCc1ccc(CN2CCC3(CC2)C(=O)N(C)CCN3CC2CC2)cc1`, the cytotoxicity at 70.5 h was -13.9%. As to `CS(=O)(=O)N1CC[C@@H]2[C@@H]1CCN2Cc1ccc2c(c1)OCO2`, the cytotoxicity at 70.5 h is -0.795%. For `CC(C)NC(=O)N1CCc2onc(C(=O)Nc3cccnc3)c2C1`, the cytotoxicity at 70.5 h was -9.09%. As to `O=C(c1ccc(F)cc1)N1CC[C@H]2[C@H]1CCN2CC1CC1`, the cytotoxicity at 70.5 h was -17.1%. As for `COCCN1C[C@@H](c2ccccc2)[C@@]2(CCN(CC(=O)N(C)C)C2=O)C1`, the figure is -9.6%; as for `Cc1ccc(CN2CCC3(CCC(C(=O)N(C)C)O3)CC2)o1` (centres undefined), -23.2%; as for `C[C@@H]1CN(Cc2ccoc2)C[C@]12CCN(CC(=O)N(C)C)C2=O`, -12%.

In the case of `C[C@H]1CN(Cc2cccc(F)c2)C[C@@]12CCN(CC(=O)N(C)C)C2=O`, the cytotoxicity at 70.5 h is -5.99%. For `COc1ccc(CN2CCc3[nH]nc(C(=O)N(C)C)c3C2)cc1`, the cytotoxicity at 70.5 h is -8.01%.

On to `CC1c2ncc(CNC(=O)C3CC3)n2CCN1Cc1nccs1` (centres undefined), for which the cytotoxicity at 70.5 h is -7.88%.

For `Cc1cc(CN2CC[C@H]3[C@H]2CCN3CC(=O)N(C)C)oc1C`, the cytotoxicity at 70.5 h is -5%. As for `COCCN1C(=O)CCC12CCCN(Cc1ccccc1F)C2` (centres undefined), the figure is 31.9%.

For the molecule `O=C1[C@H]2CN(Cc3ccoc3)C[C@H]2CN1CCN1CCCC1`, the cytotoxicity at 70.5 h was -12.5%. Turning to `Cc1ccc(CN2C[C@@H]3CCN(Cc4ccncc4)C(=O)[C@H]3C2)s1`, the cytotoxicity at 70.5 h is -8.9%. Then `CN(C)CCN1C(=O)CCCC12CCCN(Cc1cccs1)C2` (centres undefined), with -9.38%; and `CCOCC(=O)N1CCC2(CC1)COCCN2CCN(C)C`, with -9.1%; and `Cc1ccc(CN2CCc3nnc(COCCN(C)C)n3CC2)o1`, with -11.2%.

`Cc1nc(CN2CCc3ncnc(-c4cccnc4)c3CC2)cs1`: the cytotoxicity at 70.5 h came out at 42.8%.
